As a reminder, the melting point is the temperature, or range, at which the solid turns liquid.

`COc1ccc(/C=C/C(=O)CC(=O)/C=C/c2ccc(N(C)C)cc2[N+](=O)[O-])cc1O` [CU197, (1E,6E)-1-(4-dimethylamino-2-nitrophenyl)-7-(3-hydroxy-4-methoxyphenyl)hepta-1,6-diene-3,5-dione] yielded a melting point of 183 to 186 °C. With `O=C(/C=C/c1ccc(O)cc1)CC(=O)/C=C/c1cc(Cl)cc(Cl)c1` [CU201, (1E,6E)-1-(3,5-dichlorophenyl)-7-(4-hydroxyphenyl)hepta-1,6-diene-3,5-dione], the melting point lay within 165 to 172 °C. `COc1ccc(/C=C/C(=O)CC(=O)/C=C/c2ccc(N(C)C)cc2Cl)cc1O` [CU202, (1E,6E)-1-(2-chloro-4-dimethylaminophenyl)-7-(3-hydroxy-4-methoxyphenyl)hepta-1,6-diene-3,5-dione] registered a melting point of 160 to 164 °C. The compound `CS(=O)(=O)c1ccc(/C=C/C(=O)CC(=O)/C=C/c2ccc(O)cc2)cc1` [CU203, (1E,6E)-1-(4-hydroxyphenyl)-7-(4-methanesulfonylphenyl)hepta-1,6-diene-3,5-dione] came in with a melting point of 221 to 224 °C. For `COc1cc(/C=C/C(=O)CC(=O)/C=C/c2ccc(O)cc2)cc(OC)c1OC` [CU204, (1E,6E)-1-(4-hydroxyphenyl)-7-(3,4,5-trimethoxyphenyl)hepta-1,6-diene-3,5-dione], the melting point lay within 101 to 105 °C. `COc1ccc(/C=C/C(=O)CC(=O)/C=C/c2cc(OC)c(OC)c(OC)c2)cc1O` [CU205, (1E,6E)-1-(3-hydroxy-4-methoxyphenyl)-7-(3,4,5-trimethoxyphenyl)hepta-1,6-diene-3,5-dione] showed a melting point of 195 to 200 °C. Then `CN(C)c1ccc(/C=C/C(=O)CC(=O)/C=C/c2ccc(O)cc2)cc1` [CU207, (1E,6E)-1-(4-dimethylaminophenyl)-7-(4-hydroxyphenyl)hepta-1,6-diene-3,5-dione], with 205 to 209 °C; and `COc1cc(/C=C/C(=O)CC(=O)/C=C/c2ccc3c(c2)OCCO3)ccc1O` [CU209, (1E,6E)-1-(2,3-dihydrobenzo[1,4]dioxin-6-yl)-7-(4-hydroxy-3-methoxyphenyl)hepta-1,6-diene-3,5-dione], with 141 to 145 °C; and `COc1ccc(/C=C/C(=O)CC(=O)/C=C/c2ccc3c(c2)OCCO3)cc1O` [CU210, (1E,6E)-1-(2,3-dihydrobenzo[1,4]dioxin-6-yl)-7-(3-hydroxy-4-methoxyphenyl)hepta-1,6-diene-3,5-dione], with 163 to 165 °C. Then `COc1ccc(/C=C/C(=O)CC(=O)/C=C/c2ccco2)cc1O` [CU211, (1E,6E)-1-(furan-2-yl)-7-(3-hydroxy-4-methoxyphenyl)hepta-1,6-diene-3,5-dione], with 120 to 123 °C. Then `COc1ccc(/C=C/C(=O)CC(=O)/C=C/c2cccs2)cc1O` [CU212, (1E,6E)-1-(3-hydroxy-4-methoxyphenyl)-7-(thiophen-2-yl)hepta-1,6-diene-3,5-dione], with 128 to 133 °C; and `O=C(/C=C/c1ccc(O)cc1)CC(=O)/C=C/c1ccc(Oc2ccccc2)cc1` [CU213, (1E,6E)-1-(4-hydroxyphenyl)-7-(4-phenoxyphenyl)hepta-1,6-diene-3,5-dione], with 175 to 178 °C; and `O=C(/C=C/c1ccc(O)cc1)CC(=O)/C=C/c1cccc(Oc2ccccc2)c1` [CU214, (1E,6E)-1-(4-hydroxyphenyl)-7-(3-phenoxyphenyl)hepta-1,6-diene-3,5-dione], with 194 to 198 °C. Turning to `O=C(/C=C/c1ccc(O)cc1)CC(=O)/C=C/c1ccc2c(c1)OCO2` [CU215, (1E,6E)-1-(benzo[1,3]dioxol-5-yl)-7-(4-hydroxyphenyl)hepta-1,6-diene-3,5-dione], the melting point lay in the range of 197 to 200 °C. For `COc1ccc(/C=C/C(=O)CC(=O)/C=C/c2ccc(SC)cc2)cc1O` [CU216, (1E,6E)-1-(3-hydroxy-4-methoxyphenyl)-7-(4-methylthiophenyl)hepta-1,6-diene-3,5-dione], the melting point fell in the range of 158 to 162 °C. In turn, `COc1ccc(/C=C/C(=O)CC(=O)/C=C/c2cccnc2)cc1O` [CU217, (1E,6E)-1-(3-hydroxy-4-methoxyphenyl)-7-(pyridin-3-yl)hepta-1,6-diene-3,5-dione] registered a melting point of 174 to 175 °C.

On to `COc1ccc(/C=C/C(=O)CC(=O)/C=C/c2ccccn2)cc1O` [CU218, (1E,6E)-1-(3-hydroxy-4-methoxyphenyl)-7-(pyridin-2-yl)hepta-1,6-diene-3,5-dione], for which the melting point lay within 182 to 187 °C. `COc1ccc(/C=C/C(=O)CC(=O)/C=C/c2ccc(Oc3ccccc3)cc2)cc1O` [CU219, (1E,6E)-1-(3-hydroxy-4-methoxyphenyl)-7-(4-phenoxyphenyl)hepta-1,6-diene-3,5-dione]: the melting point fell in the range of 185 to 187 °C. `COc1ccc(/C=C/C(=O)CC(=O)/C=C/c2cccc(Oc3ccccc3)c2)cc1O` [CU220, (1E,6E)-1-(3-hydroxy-4-methoxyphenyl)-7-(3-phenoxyphenyl)hepta-1,6-diene-3,5-dione] returned a melting point of 148 to 150 °C.

Turning to `O=C(/C=C/c1ccc(O)cc1)CC(=O)/C=C/c1ccc2c(c1)OCCO2` [CU232, (1E,6E)-1-(2,3-dihydrobenzo[1,4]dioxin-6-yl)-7-(4-hydroxyphenyl)hepta-1,6-diene-3,5-dione], the melting point is 169 to 173 °C. As for `O=C(/C=C/c1ccc(O)cc1)CC(=O)/C=C/c1ccccn1` [CU233, (1E,6E)-1-(4-hydroxyphenyl)-7-(pyridin-2-yl)hepta-1,6-diene-3,5-dione], the melting point fell in the range of 180 to 182 °C. On to `CSc1ccc(/C=C/C(=O)CC(=O)/C=C/c2ccc(O)cc2)cc1` [CU235, (1E,6E)-1-(4-hydroxyphenyl)-7-(4-methylthiophenyl)hepta-1,6-diene-3,5-dione], for which the melting point is 169 to 171 °C. `CN(C)CCCOc1ccc(/C=C/C(=O)CC(=O)/C=C/c2ccc(O)cc2)cc1` [CU236, (1E,6E)-1-[4-(3-dimethylaminopropoxy)phenyl]-7-(4-hydroxyphenyl)hepta-1,6-diene-3,5-dione] gave a melting point of 140 to 143 °C. `COc1ccc(/C=C/C(=O)CC(=O)/C=C/c2ccc(OCCCN(C)C)cc2)cc1O` [CU241, (1E,6E)-1-[4-(3-dimethylaminopropoxy)phenyl]-7-(3-hydroxy-4-methoxyphenyl)hepta-1,6-diene-3,5-dione] came in with a melting point of 183 to 186 °C. For `COCOc1c(O)cccc1/C=C/C(=O)CC(=O)/C=C/c1ccc(O)cc1` [CU247, (1E,6E)-1-[3-hydroxy-2-(methoxymethoxy)phenyl]-7-(4-hydroxyphenyl)hepta-1,6-diene-3,5-dione], the melting point was 158 to 161 °C. With `COCOc1c(O)cccc1/C=C/C(=O)CC(=O)/C=C/c1ccc(OC)c(O)c1` [CU248, (1E,6E)-1-[3-hydroxy-2-(methoxymethoxy)phenyl]-7-(3-hydroxy-4-methoxyphenyl)hepta-1,6-diene-3,5-dione], the melting point lay within 79 to 83 °C. As for `COc1cccc(/C=C/C(=O)CC(=O)/C=C/c2ccc(O)cc2)c1O` [CU249, (1E,6E)-1-(2-hydroxy-3-methoxyphenyl)-7-(4-hydroxyphenyl)hepta-1,6-diene-3,5-dione], the melting point was 169 to 175 °C.

Take `COc1cc(/C=C/C(=O)CC(=O)/C=C/c2cccc(OC)c2O)ccc1O` [CU250, (1E,6E)-1-(2-hydroxy-3-methoxyphenyl)-7-(4-hydroxy-3-methoxyphenyl)hepta-1,6-diene-3,5-dione]: the melting point is 156 to 158 °C. Then `COc1ccc(/C=C/C(=O)CC(=O)/C=C/c2ccc(O)cc2)c(O)c1` [CU251, (1E,6E)-1-(2-hydroxy-4-methoxyphenyl)-7-(4-hydroxyphenyl)hepta-1,6-diene-3,5-dione], with 137 to 139 °C. For `COc1ccc(O)c(/C=C/C(=O)CC(=O)/C=C/c2ccc(O)cc2)c1` [CU253, (1E,6E)-1-(2-hydroxy-5-methoxyphenyl)-7-(4-hydroxyphenyl)hepta-1,6-diene-3,5-dione], the melting point lay in the range of 167 to 170 °C. In turn, `COc1ccc(/C=C/C(=O)CC(=O)/C=C/c2ccc(O)c(OC)c2)c(O)c1` [CU256, (1E,6E)-1-(2-hydroxy-4-methoxyphenyl)-7-(4-hydroxy-3-methoxyphenyl)hepta-1,6-diene-3,5-dione] showed a melting point of 108 to 113 °C.

`COc1cc(/C=C/C(=O)CC(=O)/C=C/c2ccc(O)cc2O)ccc1O` [CU257, (1E,6E)-1-(2,4-dihydroxyphenyl)-7-(4-hydroxy-3-methoxyphenyl)hepta-1,6-diene-3,5-dione] yielded a melting point of 99 to 108 °C.

`COc1ccc(/C=C/C(=O)CC(=O)/C=C/c2ccc(O)cc2O)cc1O` [CU258, (1E,6E)-1-(2,4-dihydroxyphenyl)-7-(3-hydroxy-4-methoxyphenyl)hepta-1,6-diene-3,5-dione] displayed a melting point of 104 to 109 °C. The compound `COCOc1cccc(O)c1/C=C/C(=O)CC(=O)/C=C/c1ccc(O)c(OC)c1` [CU259, (1E,6E)-1-[2-hydroxy-6-(methoxymethoxy)phenyl]-7-(4-hydroxy-3-methoxyphenyl)hepta-1,6-diene-3,5-dione] returned a melting point of 76 to 81 °C. As to `CCn1c2ccccc2c2cc(/C=C/C(=O)CC(=O)/C=C/c3ccc4c(c3)c3ccccc3n4CC)ccc21` [CU263, (1E,6E)-1,7-bis(9-ethyl-9H-carbazol-3-yl)hepta-1,6-diene-3,5-dione], the melting point lay in the range of 264 to 267 °C.

`O=C(/C=C/c1ccc(O)cc1)CC(=O)/C=C/c1cccc(O)c1O` [CU264, (1E,6E)-1-(2,3-dihydroxyphenyl)-7-(4-hydroxyphenyl)hepta-1,6-diene-3,5-dione]: the melting point was in the range of 173 to 176 °C.

For the compound `COc1ccc(/C=C/C(=O)CC(=O)/C=C/c2cccc(O)c2O)cc1O` [CU265, (1E,6E)-1-(2,3-dihydroxyphenyl)-7-(3-hydroxy-4-methoxyphenyl)hepta-1,6-diene-3,5-dione], the melting point was 170 to 172 °C. Then `COc1ccc(/C=C/C(=O)CC(=O)/C=C/c2cccc(OC)c2O)cc1O` [CU273, (1E,6E)-1-(2-hydroxy-3-methoxyphenyl)-7-(3-hydroxy-4-methoxyphenyl)hepta-1,6-diene-3,5-dione], with 155 to 157 °C.

These data come from patent US8962674B2 (Tokyo Institute of Technology, priority 2006, dated 2015).
